Counter-ions that a name gives are not always drawn.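 A five-concentration, 48-hour dose response in 96-well plates underlies each endpoint, interpolated linearly between surrounding concentrations. At the GI50, growth is halved.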 The source made the active and inactive calls. Rule as the data show it: active = GI50 up to about 1.1 µM and inactive = higher.
Key:
Assay in all cases: NCI tumour cell line growth inhibition, 48 h
A498 = tested on: A498
ACHN = tested on: ACHN
HCT-15 = tested on: HCT-15
HOP-62 = tested on: HOP-62
HT-29 = tested on: HT-29
IGROV-1 = tested on: IGROV-1
NCI-H226 = tested on: NCI-H226
NCI-H23 = tested on: NCI-H23
OVCAR-8 = tested on: OVCAR-8
SF-268 = tested on: SF-268
SF-539 = tested on: SF-539
SNB-75 = tested on: SNB-75
SR = tested on: SR
TK-10 = tested on: TK-10
UACC-257 = tested on: UACC-257
RXF 393 = tested on: RXF 393

SMILES	GI50 (A498)	GI50 (ACHN)	GI50 (HCT-15) [µM]	GI50 (HOP-62)	GI50 (HT-29)	GI50 (IGROV-1)	GI50 (NCI-H226)	GI50 (NCI-H23)	GI50 (OVCAR-8)	GI50 (SF-268)	GI50 (SF-539)	GI50 (SNB-75)	GI50 (SR)	GI50 (TK-10)	GI50 (UACC-257)	GI50 (RXF 393)
Nc1nc(SCC(=O)c2ccccc2)c2[nH]cnc2n1	> 100 µM (inactive)	> 100 µM (inactive)	> 100	> 100 µM (inactive)	> 100 µM (inactive)	> 100 µM (inactive)	> 100 µM (inactive)	> 100 µM (inactive)	> 100 µM (inactive)	> 100 µM (inactive)	> 100 µM (inactive)	21.9 µM (inactive)	> 100 µM (inactive)	> 100 µM (inactive)	> 100 µM (inactive)	
COc1ccc(C2=NN(C(C)=O)c3nc4ccccc4nc3O2)cc1		24.4 µM (inactive)	46.6	23.1 µM (inactive)	> 100 µM (inactive)	3.33 µM (inactive)		55.2 µM (inactive)	37.3 µM (inactive)	31.3 µM (inactive)	17.8 µM (inactive)	6.28 µM (inactive)	> 100 µM (inactive)	21.3 µM (inactive)	50.8 µM (inactive)	
COc1ccc(O)c2c1C(=O)CCCC2=O	> 100 µM (inactive)	> 100 µM (inactive)	> 100	> 100 µM (inactive)	> 100 µM (inactive)	> 100 µM (inactive)		> 100 µM (inactive)	> 100 µM (inactive)	> 100 µM (inactive)	> 100 µM (inactive)			> 100 µM (inactive)	> 100 µM (inactive)	
C1=c2ccccc2=C2C(=C(c3ccccc3)C(c3ccccc3)=NN2c2ccccc2)S1	> 100 µM (inactive)	> 100 µM (inactive)	> 100	> 100 µM (inactive)	> 100 µM (inactive)	> 100 µM (inactive)	> 100 µM (inactive)	> 100 µM (inactive)	> 100 µM (inactive)	> 100 µM (inactive)	> 100 µM (inactive)	> 100 µM (inactive)		> 100 µM (inactive)	> 100 µM (inactive)	> 100 µM (inactive)
CN(C)c1nc(Oc2nc(N(C)C)nc(N(C)C)n2)nc(N(C)C)n1	> 100 µM (inactive)	> 100 µM (inactive)	> 100		> 100 µM (inactive)	> 100 µM (inactive)	> 100 µM (inactive)	72.6 µM (inactive)	93.8 µM (inactive)	> 100 µM (inactive)	> 100 µM (inactive)	35.9 µM (inactive)	> 100 µM (inactive)	> 100 µM (inactive)	56.5 µM (inactive)	> 100 µM (inactive)
O=C1NC2OCC(O)C(O)C2O1 (configuration not stated)	> 100 µM (inactive)	> 100 µM (inactive)	> 100	> 100 µM (inactive)	> 100 µM (inactive)	> 100 µM (inactive)		> 100 µM (inactive)	> 100 µM (inactive)	> 100 µM (inactive)	> 100 µM (inactive)	> 100 µM (inactive)	> 100 µM (inactive)	> 100 µM (inactive)	> 100 µM (inactive)	
C=CCc1cc(OC)c2c(c1)C(O)CC(c1ccc(OC)c(OC)c1)O2 (configuration not stated)		> 100 µM (inactive)	> 100	> 100 µM (inactive)	> 100 µM (inactive)	> 100 µM (inactive)	> 100 µM (inactive)	> 100 µM (inactive)	> 100 µM (inactive)	> 100 µM (inactive)	78.2 µM (inactive)	89.5 µM (inactive)	> 100 µM (inactive)	> 100 µM (inactive)	72.4 µM (inactive)	
CS(=O)(=O)Sc1ccc(Cl)cc1	2.38 µM (inactive)		10.1	2.83 µM (inactive)	9.75 µM (inactive)	2.85 µM (inactive)	7.48 µM (inactive)	13.8 µM (inactive)	7.87 µM (inactive)	1.63 µM (inactive)	2.55 µM (inactive)	3.21 µM (inactive)	3.59 µM (inactive)	14 µM (inactive)	8.53 µM (inactive)	7.89 µM (inactive)
CC1=NCCc2c1[nH]c1cc(O)ccc21 [HARMALOL HYDROCHLORIDE]	> 100 µM (inactive)	> 100 µM (inactive)	> 100	> 100 µM (inactive)	> 100 µM (inactive)	> 100 µM (inactive)	> 100 µM (inactive)	> 100 µM (inactive)	> 100 µM (inactive)	> 100 µM (inactive)	> 100 µM (inactive)	> 100 µM (inactive)		> 100 µM (inactive)	> 100 µM (inactive)	> 100 µM (inactive)
COc1cc(/C=C/C(=O)c2sc(NNC(C)=O)nc2C)ccc1O	84.3 µM (inactive)	> 100 µM (inactive)	> 100	> 100 µM (inactive)	> 100 µM (inactive)	> 100 µM (inactive)	> 100 µM (inactive)	> 100 µM (inactive)	> 100 µM (inactive)	> 100 µM (inactive)	> 100 µM (inactive)	> 100 µM (inactive)		> 100 µM (inactive)	> 100 µM (inactive)	> 100 µM (inactive)
CC(O)C1OC(n2ccc(=O)[nH]c2=O)CC1n1cncn1 (configuration not stated)	> 100 µM (inactive)	> 100 µM (inactive)	> 100	> 100 µM (inactive)	> 100 µM (inactive)	> 100 µM (inactive)	11.8 µM (inactive)	> 100 µM (inactive)	> 100 µM (inactive)	> 100 µM (inactive)			> 100 µM (inactive)	> 100 µM (inactive)	> 100 µM (inactive)	> 100 µM (inactive)
C/C(=N\NC(=O)CC#N)c1c(O)cc(C)oc1=O	> 100 µM (inactive)	> 100 µM (inactive)	> 100	> 100 µM (inactive)	> 100 µM (inactive)	> 100 µM (inactive)	> 100 µM (inactive)	> 100 µM (inactive)	> 100 µM (inactive)	> 100 µM (inactive)	> 100 µM (inactive)	> 100 µM (inactive)	> 100 µM (inactive)	> 100 µM (inactive)	> 100 µM (inactive)	
Nc1nc(Cl)c2ncn(CCCC(c3ccccc3)P(=O)(O)O)c2n1 (configuration not stated)	> 100 µM (inactive)	> 100 µM (inactive)	> 100	> 100 µM (inactive)	> 100 µM (inactive)	> 100 µM (inactive)		> 100 µM (inactive)	> 100 µM (inactive)	> 100 µM (inactive)	> 100 µM (inactive)	> 100 µM (inactive)	> 100 µM (inactive)	> 100 µM (inactive)	> 100 µM (inactive)	
CCCCCC#COC1CC(C)CC[C@@H]1C(C)C (some centres not stated)		78.2 µM (inactive)	> 100	47.9 µM (inactive)	59.4 µM (inactive)	27.7 µM (inactive)	> 100 µM (inactive)	> 100 µM (inactive)	> 100 µM (inactive)	> 100 µM (inactive)	> 100 µM (inactive)	75.9 µM (inactive)		> 100 µM (inactive)	46.2 µM (inactive)	36.3 µM (inactive)
CCN(CC)c1ccc(/N=C2\C=C(Cl)C(=O)c3ncccc32)c(C)c1		2.96 µM (inactive)	3.85	5.37 µM (inactive)	15.8 µM (inactive)	11.1 µM (inactive)		3.24 µM (inactive)	4.08 µM (inactive)		12.4 µM (inactive)	14.4 µM (inactive)		4.37 µM (inactive)	2.48 µM (inactive)	3.92 µM (inactive)

— ChEMBL document CHEMBL1201862, “PubChem BioAssay data set” (2004)
